Results taken from PubChem BioAssay (NCI).
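The compound was tested at five concentrations on cells cultured in 96-well plates, with a 48-hour exposure period. At the GI50, growth is halved. TGI denotes the concentration required for complete inhibition of growth.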

Tests used:
Assay in all cases: growth of human tumour cells (NCI), 48 h
CAKI-1 renal = tested on: CAKI-1 renal
NCI/ADR-RES ovarian = tested on: NCI/ADR-RES ovarian
SN12C renal = tested on: SN12C renal
SK-MEL-5 melanoma = tested on: SK-MEL-5 melanoma
PC-3 prostate = tested on: PC-3 prostate
NCI-H23 lung = tested on: NCI-H23 lung
SK-OV-3 ovarian = tested on: SK-OV-3 ovarian
HOP-92 NSCLC = tested on: HOP-92 NSCLC
SK-MEL-2 melanoma = tested on: SK-MEL-2 melanoma
ACHN renal = tested on: ACHN renal
SF-295 CNS = tested on: SF-295 CNS
OVCAR-8 ovarian = tested on: OVCAR-8 ovarian
NCI-H226 lung = tested on: NCI-H226 lung
786-0 renal = tested on: 786-0 renal
SK-MEL-28 melanoma = tested on: SK-MEL-28 melanoma
SR leukemia = tested on: SR leukemia
OVCAR-3 ovarian = tested on: OVCAR-3 ovarian
HCT-116 colon = tested on: HCT-116 colon
A498 renal = tested on: A498 renal
SF-539 CNS = tested on: SF-539 CNS
U251 CNS = tested on: U251 CNS
TK-10 renal = tested on: TK-10 renal
DU-145 prostate = tested on: DU-145 prostate
K-562 leukemia = tested on: K-562 leukemia
CCRF-CEM leukemia = tested on: CCRF-CEM leukemia
HT29 colon = tested on: HT29 colon
OVCAR-5 ovarian = tested on: OVCAR-5 ovarian
UO-31 renal = tested on: UO-31 renal
M14 melanoma = tested on: M14 melanoma
MOLT-4 leukemia = tested on: MOLT-4 leukemia
HOP-62 NSCLC = tested on: HOP-62 NSCLC
UACC-257 melanoma = tested on: UACC-257 melanoma
HCC-2998 colon = tested on: HCC-2998 colon
SW-620 colon = tested on: SW-620 colon
IGROV1 ovarian = tested on: IGROV1 ovarian
LOX IMVI melanoma = tested on: LOX IMVI melanoma
NCI-H460 lung = tested on: NCI-H460 lung
HCT-15 colon = tested on: HCT-15 colon
KM12 colon = tested on: KM12 colon
SF-268 CNS = tested on: SF-268 CNS
RPMI-8226 leukemia = tested on: RPMI-8226 leukemia
MCF7 breast = tested on: MCF7 breast
SNB-19 CNS = tested on: SNB-19 CNS
OVCAR-4 ovarian = tested on: OVCAR-4 ovarian
UACC-62 melanoma = tested on: UACC-62 melanoma
MDA-MB-231 breast = tested on: MDA-MB-231 breast
HS 578T breast = tested on: HS 578T breast
A549 NSCLC = tested on: A549 NSCLC

`COc1cc(OC)cc(-c2n[nH]nc2-c2ccc3c(c2)OCO3)c1` was tested. Which GI50 (CAKI-1 renal) did it give?
The GI50 was 0.316 µM.

And the TGI (CAKI-1 renal)?
The TGI was greater than 100 µM.

What about the GI50 (NCI/ADR-RES ovarian) of the same molecule?
The GI50 was 0.0849 µM.

And the TGI (NCI/ADR-RES ovarian)?
Its TGI is 24 µM.

What about the GI50 (SN12C renal) of the same molecule?
The GI50 was 2.14 µM.

What about the TGI (SN12C renal) of the same molecule?
The TGI was greater than 100 µM.

What about the GI50 (SK-MEL-5 melanoma) of the same molecule?
The GI50 was 0.168 µM.

And the TGI (SK-MEL-5 melanoma)?
The TGI was 11.9 µM.

What about the GI50 (PC-3 prostate) of the same molecule?
The GI50 was 0.255 µM.

And the TGI (PC-3 prostate)?
Its TGI is 43.7 µM.

And the GI50 (NCI-H23 lung)?
The GI50 was 0.768 µM.

What about the TGI (NCI-H23 lung) of the same molecule?
The TGI was greater than 100 µM.

And the GI50 (SK-OV-3 ovarian)?
Its GI50 is 0.486 µM.

And the TGI (SK-OV-3 ovarian)?
Its TGI is 93.2 µM.

What about the GI50 (HOP-92 NSCLC) of the same molecule?
The GI50 was 0.122 µM.

What about the TGI (HOP-92 NSCLC) of the same molecule?
The TGI was 1.59 µM.

And the GI50 (SK-MEL-2 melanoma)?
The GI50 was 0.245 µM.

And the TGI (SK-MEL-2 melanoma)?
Its TGI is 55.7 µM.

And the GI50 (ACHN renal)?
Its GI50 is 0.705 µM.

What about the TGI (ACHN renal) of the same molecule?
Its TGI is greater than 100 µM.

What about the GI50 (SF-295 CNS) of the same molecule?
The GI50 was 0.0989 µM.

And the TGI (SF-295 CNS)?
Its TGI is 3.61 µM.

And the GI50 (OVCAR-8 ovarian)?
The GI50 was 0.512 µM.

What about the TGI (OVCAR-8 ovarian) of the same molecule?
The TGI was 31.3 µM.

And the GI50 (NCI-H226 lung)?
Its GI50 is 5.15 µM.

And the TGI (NCI-H226 lung)?
Its TGI is greater than 100 µM.

What about the GI50 (786-0 renal) of the same molecule?
Its GI50 is 0.618 µM.

What about the TGI (786-0 renal) of the same molecule?
Its TGI is 63.5 µM.

What about the GI50 (SK-MEL-28 melanoma) of the same molecule?
Its GI50 is 4.44 µM.

What about the TGI (SK-MEL-28 melanoma) of the same molecule?
Its TGI is 43.5 µM.

What about the GI50 (SR leukemia) of the same molecule?
Its GI50 is 0.0436 µM.

And the TGI (SR leukemia)?
Its TGI is 11.6 µM.

And the GI50 (OVCAR-3 ovarian)?
The GI50 was 0.0745 µM.

What about the TGI (OVCAR-3 ovarian) of the same molecule?
Its TGI is 0.378 µM.

And the GI50 (HCT-116 colon)?
The GI50 was 0.181 µM.

What about the TGI (HCT-116 colon) of the same molecule?
Its TGI is 15.6 µM.

What about the GI50 (A498 renal) of the same molecule?
The GI50 was 0.343 µM.

What about the TGI (A498 renal) of the same molecule?
The TGI was 9.32 µM.

And the GI50 (SF-539 CNS)?
The GI50 was 0.181 µM.

And the TGI (SF-539 CNS)?
The TGI was 0.546 µM.

And the GI50 (U251 CNS)?
Its GI50 is 0.302 µM.

And the TGI (U251 CNS)?
Its TGI is 11.2 µM.

And the GI50 (TK-10 renal)?
The GI50 was 17.6 µM.

What about the TGI (TK-10 renal) of the same molecule?
Its TGI is greater than 100 µM.

And the GI50 (DU-145 prostate)?
Its GI50 is 0.346 µM.

What about the TGI (DU-145 prostate) of the same molecule?
The TGI was greater than 100 µM.

What about the GI50 (K-562 leukemia) of the same molecule?
Its GI50 is 0.0496 µM.

And the TGI (K-562 leukemia)?
The TGI was greater than 100 µM.

What about the GI50 (CCRF-CEM leukemia) of the same molecule?
The GI50 was 0.282 µM.

And the TGI (CCRF-CEM leukemia)?
Its TGI is greater than 100 µM.

What about the GI50 (HT29 colon) of the same molecule?
The GI50 was 0.392 µM.

And the TGI (HT29 colon)?
The TGI was 12.5 µM.

And the GI50 (OVCAR-5 ovarian)?
The GI50 was 1.47 µM.

And the TGI (OVCAR-5 ovarian)?
The TGI was greater than 100 µM.

What about the GI50 (UO-31 renal) of the same molecule?
Its GI50 is 0.661 µM.

And the TGI (UO-31 renal)?
The TGI was 72.7 µM.

And the GI50 (M14 melanoma)?
Its GI50 is 0.0948 µM.

What about the TGI (M14 melanoma) of the same molecule?
Its TGI is 12 µM.

What about the GI50 (MOLT-4 leukemia) of the same molecule?
Its GI50 is 0.572 µM.

What about the TGI (MOLT-4 leukemia) of the same molecule?
The TGI was 51.8 µM.

And the GI50 (HOP-62 NSCLC)?
The GI50 was 0.336 µM.

What about the TGI (HOP-62 NSCLC) of the same molecule?
Its TGI is greater than 100 µM.

What about the GI50 (UACC-257 melanoma) of the same molecule?
Its GI50 is 18.2 µM.

And the TGI (UACC-257 melanoma)?
Its TGI is 70.4 µM.

And the GI50 (HCC-2998 colon)?
Its GI50 is 2.15 µM.

What about the TGI (HCC-2998 colon) of the same molecule?
Its TGI is 24.6 µM.

What about the GI50 (SW-620 colon) of the same molecule?
The GI50 was 0.105 µM.

What about the TGI (SW-620 colon) of the same molecule?
Its TGI is greater than 100 µM.

What about the GI50 (IGROV1 ovarian) of the same molecule?
The GI50 was 0.432 µM.

And the TGI (IGROV1 ovarian)?
The TGI was greater than 100 µM.

What about the GI50 (LOX IMVI melanoma) of the same molecule?
The GI50 was 0.545 µM.

And the TGI (LOX IMVI melanoma)?
Its TGI is 87.1 µM.

What about the GI50 (NCI-H460 lung) of the same molecule?
The GI50 was 0.335 µM.

What about the TGI (NCI-H460 lung) of the same molecule?
Its TGI is 28.7 µM.

And the GI50 (HCT-15 colon)?
Its GI50 is 0.125 µM.

What about the TGI (HCT-15 colon) of the same molecule?
Its TGI is greater than 100 µM.

And the GI50 (KM12 colon)?
Its GI50 is 0.07 µM.

What about the TGI (KM12 colon) of the same molecule?
Its TGI is 11.9 µM.

What about the GI50 (SF-268 CNS) of the same molecule?
The GI50 was 2.37 µM.

What about the TGI (SF-268 CNS) of the same molecule?
The TGI was greater than 100 µM.

And the GI50 (RPMI-8226 leukemia)?
The GI50 was 0.326 µM.

And the TGI (RPMI-8226 leukemia)?
The TGI was 22.1 µM.

What about the GI50 (MCF7 breast) of the same molecule?
Its GI50 is 0.0768 µM.

And the TGI (MCF7 breast)?
Its TGI is greater than 100 µM.

And the GI50 (SNB-19 CNS)?
Its GI50 is 0.501 µM.

And the TGI (SNB-19 CNS)?
Its TGI is greater than 100 µM.

And the GI50 (OVCAR-4 ovarian)?
Its GI50 is 0.763 µM.

What about the TGI (OVCAR-4 ovarian) of the same molecule?
The TGI was greater than 100 µM.

What about the GI50 (UACC-62 melanoma) of the same molecule?
Its GI50 is 3.09 µM.

What about the TGI (UACC-62 melanoma) of the same molecule?
The TGI was 30.8 µM.

And the GI50 (MDA-MB-231 breast)?
The GI50 was 0.529 µM.

What about the TGI (MDA-MB-231 breast) of the same molecule?
Its TGI is 31.5 µM.

And the GI50 (HS 578T breast)?
The GI50 was 0.442 µM.

What about the TGI (HS 578T breast) of the same molecule?
The TGI was greater than 100 µM.

What about the GI50 (A549 NSCLC) of the same molecule?
The GI50 was 0.289 µM.

What about the TGI (A549 NSCLC) of the same molecule?
Its TGI is 50.9 µM.
